The record followed here is patent US5859033A, “Anticonvulsant pyridinyl benzamide derivatives” (Bristol-Myers Squibb Company, priority 1997, dated 1999).

The structures appear in SMILES notation.

The test system of assay [1] is pentylenetetrazole (PTZ)-induced seizure in female C57BI/6 mice. Put plainly: Pentylenetetrazole (PTZ)-induced seizure procedure. To be noted: 50 mg/kg i.p., 30 min before 75 mg/kg i.p. PTZ; for PTZ Anticonvulsive Results: Surv (survival at one hour postPTZ): one hour post PTZ. The format is in vivo, mouse (female C57BI/6). As to the method:
(§1) The compounds of Formula I are anticonvulsant agents. Their anticonvulsant properties were determined by pharmacologic testing, utilizing two standard animal models of epilepsy: the pentylenetetrazole (PTZ)-induced seizure procedure and the maximal electroshock test (MES). General descriptions of such testing can be found in J. F. Reinhard and J. F. Reinhard, Jr., "Experimental Evaluation of Anticonvulsants," in Anticonvulsants, J. A. Vida, Ed., Academic Press, New York, N.Y., 1977.
The Pentylenetetrazole (PZT)-Induced Seizure Procedure
In the PTZ procedure female C57BI/6 mice (17-26 g) were injected i.p. (vol=0.1 mL/20 g) with test compound or vehicle 30 min. before i.p. administration of 75 mg/kg pentylenetetrazol. Multiple doses of reference compounds (ethosuximide, trimethadione, and pentobarbital) were tested at the time of peak activity and at the dose range reported in the literature. Ten mice were used per group. After injection, mice were placed in individual observation cages and monitored for one hour. During the first 30 minutes following PTZ injection, seizure activity was recorded by measuring: the latency to the onset of pre-convulsive activity, the latency to the onset of the first clonic seizure longer than five seconds, the latency to the onset of the first intense-generalized clonic/tonic seizure, and the length of survival. During the second 30 min. period, only time of death was recorded. Those compounds that produced a significant delay in the onset of seizure activity or delayed (or abolished) mortality when compared to that produced by vehicle were classified as anticonvulsants. Significant difference between animals treated with vehicle or test compound were determined using the Student's t-test.

The subject of assay [2] is tonic seizure (maximum electroshock) in female C57BI/6 mice. Put plainly: Maximum Electroshock (MES) procedure. The format is in vivo, mouse (female C57BI/6). Particulars: Mus musculus, ip, 0.5 h, i.p. 30 min before MES, abolition of hindlimb tonic extension, read-out: MES Results: median effective dose (ED50). On the procedure:
as §1
The Maximum Electroshock (MES) Procedure
In the MES procedure a tonic seizure was produced in female C57BI/6 mice (17-26 g) by the delivery of a 50 milliamps current through corneal electrodes for 0.2 sec. Before testing, animals were allowed food and water ad libitum. Compounds were injected i.p. (vol=0.1 mL/20 g) 30 min. before the MES. Reference compounds (phenytoin, carbamazepine, phenobarbital, and valproic acid) were tested at the time of peak activity and at the dose range reported in the literature. Seven mice were used per group. In this test anticonvulsive activity was indicated by the abolition of the hindlimb tonic extension. The median effective dose (ED50) was obtained for each compound.

What is called ED50 is the midpoint of the dose-response relation. Take `COc1cc(N)c(Cl)cc1C(=O)NCc1cccnc1` [Example 1, 4-Amino-5-chloro-2-methoxy-N-(3-pyridinylmethyl)benzamide]: in assay [1], the “PTZ Anticonvulsive Results: First (latency to first seizure)” value (“PTZ Anticonvulsive Results: First” below) was “++++ (++++ = > 400% of controls)”; the “PTZ Anticonvulsive Results: IGS (onset of intense, generalized seizures)” value is “+++ (+++ = > 300% of controls)”; the “PTZ Anticonvulsive Results: Pre (latency to first twitch)” value (shortened to “PTZ Anticonvulsive Results: Pre”) is reported as “++ (++ = > 200% of controls)”; the “PTZ Anticonvulsive Results: Surv Time (duration of survival)” value (“PTZ Anticonvulsive Results: Surv Time” for short) was “++++ (++++ = > 400% of controls)”. Besides, in assay [1], the “PTZ Anticonvulsive Results: Surv (survival at one hour postPTZ)” value was “++++ (++++ = > 400% of controls)”. The ED50 in assay [2] is less than 75 mg/kg.

As for `COc1cc(N)c(Cl)cc1C(=O)NCc1ccccn1` [Example 2, 4-Amino-5-chloro-2-methoxy-N-(2-pyridinylmethyl)benzamide], in assay [1], the “PTZ Anticonvulsive Results: First” value is given as “++++ (++++ = > 400% of controls)”, the “PTZ Anticonvulsive Results: Pre” value is “++ (++ = > 200% of controls)”, the “PTZ Anticonvulsive Results: Surv Time” value is on record as “+++ (+++ = > 300% of controls)” and the “PTZ Anticonvulsive Results: Surv (survival at one hour postPTZ)” value was “++++ (++++ = > 400% of controls)”.

With `COc1cc(N)c(Cl)cc1C(=O)NCc1ccncc1` [Example 3, 4-Amino-5-chloro-2-methoxy-N-(4-pyridinylmethyl)benzamide], in assay [1], the “PTZ Anticonvulsive Results: First” value is on record as “++++ (++++ = > 400% of controls)”; the “PTZ Anticonvulsive Results: IGS (onset of intense, generalized seizures)” value is listed as “+++ (+++ = > 300% of controls)”; the “PTZ Anticonvulsive Results: Pre” value is “++ (++ = > 200% of controls)”; the “PTZ Anticonvulsive Results: Surv Time” value is recorded as “++++ (++++ = > 400% of controls)”. Further, in assay [1], the “PTZ Anticonvulsive Results: Surv (survival at one hour postPTZ)” value is “++++ (++++ = > 400% of controls)”. For the same compound, in assay [2], the ED50 was less than 10 mg/kg.
